{"source": "patent US12023319B2", "about": "“Carboxylic acid aromatic amides” (priority 2016, dated 2024)", "assay_type_in_all_cases": "in vivo", "key": {"Female Brown Norway rats [1]": {"system": "Female Brown Norway rats", "assay": "Rat model for endometriosis, acute phase (4 day)", "conditions": "rat 4 day endometriosis model, once daily p.o. 1, 5, 15, 60 mg/kg", "description": "4. Rat Model for Endometriosis, Acute Phase Female Brown Norway rats (Charles-River) were treated p.o. with Compound Example 3 (doses: 1 mg/kg, 5 mg/kg, 15 mg/kg, 60 mg/kg) or vehicle alone (10% DMSO+90% phosphate buffered saline (PBS)). 2 h later all animals got under deep anesthesia a transplantation of 6 uterus pieces in the peritoneal cavity. The tissue was obtained from donor animals which were pre-treated with 3 μg s.c. Estradiol (E2) for 2 days to guarantee standardized conditions of the uterus tissue. The animals were treated once daily p.o. with Compound Example 3 (doses: 1 mg/kg, 5 mg/kg, 15 mg/kg, 60 mg/kg) or vehicle alone (10% DMSO+90% phosphate buffered saline (PBS). 4 days later the animals were sacrificed and the transplants as surrogate endometriosis lesion tissue were analyzed for markers of lesion activity (inflammatory cytokines and proliferation marker). This approach is mimicking the early inflammatory phase of endometriosis close to menstruation. Analysis For RNA expression analysis the lesions, were excised. RNA was isolated after homogenization of tissues in guanidinium thiocyanate using the RNeasy mini Kit (Qiagen) with DNase digestion. […] Relative mRNA levels were calculated using the comparative CT method using the RQ-Manager software (Applied Biosystems). […]"}, "Female Brown Norway rats [2]": {"system": "Female Brown Norway rats", "assay": "Rat model for endometriosis, late phase (15 day)", "conditions": "rat 15 day endometriosis model, once daily p.o. 5, 30, 60 mg/kg; FIG. 5-6", "description": "5. Rat Model for Endometriosis, Late Phase Female Brown Norway rats (Charles-River) were treated with Compound Example 3 (doses: 5 mg/kg, 30 mg/kg, 60 mg/kg) or vehicle alone (10% DMSO+90% phosphate buffered saline (PBS). 2 h later all animals got under deep anesthesia a transplantation of 6 uterus pieces in the peritoneal cavity. The tissue was obtained from donor animals which were pre-treated with 3 μg s.c. Estradiol for 2 days to guarantee standardized conditions of the uterus tissue. The animals were treated once daily p.o. with Compound Example 3 (doses: 5 mg/kg, 30 mg/kg, 60 mg/kg) or respective vehicle (10% DMSO+90% phosphate buffered saline (PBS). 15 days later the animals were sacrificed and the transplants as surrogate endometriosis lesion tissue were analyzed for markers of lesion activity (inflammatory cytokines). This approach is mimicking the long term effect on established inflammation in endometriosis. Analysis For ex vivo cytokine analysis, animals were sacrificed and tissues (endometriosis lesions) were frozen at −80° C. […] After centrifugation at 13.000 U/min (Eppendorf) supernatants were analyzed for cytokine levels using Bio-Plex Pro™ Rat Cytokine 24-plex (Bio Rad Assay #171K1001M) or the Bio-Plex Pro™ Mouse Cytokine 23-Plex (Bio Rad Assay #M600009RDPD) according to the manufacturer's protocols."}, "[3]": {"system": "female Sprague Daley rats", "assay": "Isovolumetric bladder contraction model (rat)", "conditions": "single administration 1 mg/kg & 15 mg/kg, compared to vehicle", "source_text": "11. Isovolumetric Bladder Contraction Model (Rat) The aim of this study was to test the efficacy of Compound Examples on bladder function, in particularly on contraction frequency/intercontraction interval and contraction magnitude/contraction amplitude. The experimental setup for performing the isovolumetric bladder measurements was adapted to a previous descripted protocol (Yoshiyama M, de Groat W C. Am J Physiol Regul Integr Comp Physiol 280: […]-[…], 2001). Strong presence and target induction of BDKRB1 in comparison to BDKRB2 has been verified by gene expression analysis in bladders removed from rats after performance of the isovolumetric bladder contraction model in contrast to bladders of naïve, untreated rats. Immunohistochemistry confirmed the presence of BDKRB1 in bladders of rats after contraction, too. […] At least five cycles of isovolumetric bladder contractions were recorded before the Compound Examples or vehicle alone (PEG400/Water (50/50(v/v))) were administered via the catheter in the Vena jugularis at different dosages. About 2 minutes after compound administration the next nine contraction cycles were recorded. The change in contraction amplitude and intercontraction interval of the recorded bladder pressure and bladder contractions was calculated by comparing the means before and after compound administration using GraphPad Prism 7 program."}}}
{"smiles": "O=C(O)c1cc(NC(=O)C2(c3ccc(C(F)(F)F)cc3F)CC2)ccc1-c1cnn(C2CCC2)c1", "note": "[Example 3, 2-(1-Cyclobutyl-1H-pyrazol-4-yl)-5-[({1-[2-fluoro-4-(trifluoromethyl)phenyl]cyclopropyl}carbonyl)amino]benzoic acid]", "values": [{"measurement": "expression of proliferation marker (PCNA) in lesions", "setting": "Female Brown Norway rats [1]; FIG. 1", "value": "decreased"}, {"measurement": "expression of inflammatory cytokines in lesions (TNF alpha, IL-1 beta, IL-6)", "setting": "Female Brown Norway rats [1]; FIG. 2-4", "value": "decreased"}, {"measurement": "expression of inflammatory cytokines in the lesions (IL-1 alpha, IL-1 beta)", "setting": "Female Brown Norway rats [2]", "value": "decreased"}, {"measurement": "intercontraction interval (ICI)", "setting": "[3]", "value": "significant efficacy on prolonging"}, {"measurement": "maximal pressure of bladder contractions", "setting": "[3]", "value": "remained unchanged"}]}
